The values that follow are results of earlier work, collected in US12673067B2, “Methods, agents, and devices for local neuromodulation of autonomic nerves” (Tulavi Therapeutics, Inc., priority 2016, dated 2026).

Each structure is given as a SMILES string.

One series concerns the target GPR40 (Homo sapiens, UniProt O14842). The note with it: at 100 μM.
A further series has as its target T1, GPR120 (Homo sapiens, UniProt Q5NUL3).
T1 sequence (Q5NUL3 1-361): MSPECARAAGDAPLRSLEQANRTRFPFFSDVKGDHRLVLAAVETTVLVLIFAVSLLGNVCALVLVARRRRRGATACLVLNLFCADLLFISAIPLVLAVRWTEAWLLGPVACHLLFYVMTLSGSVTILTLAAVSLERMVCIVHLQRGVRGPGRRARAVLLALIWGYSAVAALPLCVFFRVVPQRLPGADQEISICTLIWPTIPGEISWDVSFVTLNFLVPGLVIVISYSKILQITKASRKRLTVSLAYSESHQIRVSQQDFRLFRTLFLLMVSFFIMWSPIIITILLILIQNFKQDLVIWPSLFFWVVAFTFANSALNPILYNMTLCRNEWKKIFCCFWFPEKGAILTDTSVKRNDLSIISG

In a further series the target is T2, FFA3 (Homo sapiens, UniProt O14843).
T2 sequence (O14843 1-346): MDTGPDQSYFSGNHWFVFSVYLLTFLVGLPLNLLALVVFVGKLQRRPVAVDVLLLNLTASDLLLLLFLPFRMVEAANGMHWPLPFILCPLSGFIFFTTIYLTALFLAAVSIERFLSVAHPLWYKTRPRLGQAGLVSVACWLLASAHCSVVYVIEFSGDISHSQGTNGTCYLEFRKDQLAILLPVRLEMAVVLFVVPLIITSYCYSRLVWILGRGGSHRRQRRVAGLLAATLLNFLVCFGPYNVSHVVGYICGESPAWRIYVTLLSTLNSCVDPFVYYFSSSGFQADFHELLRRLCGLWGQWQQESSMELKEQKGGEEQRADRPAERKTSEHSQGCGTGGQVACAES

The next series addresses T3, FFA2 (Homo sapiens, UniProt O15552).
T3 sequence (O15552 1-330): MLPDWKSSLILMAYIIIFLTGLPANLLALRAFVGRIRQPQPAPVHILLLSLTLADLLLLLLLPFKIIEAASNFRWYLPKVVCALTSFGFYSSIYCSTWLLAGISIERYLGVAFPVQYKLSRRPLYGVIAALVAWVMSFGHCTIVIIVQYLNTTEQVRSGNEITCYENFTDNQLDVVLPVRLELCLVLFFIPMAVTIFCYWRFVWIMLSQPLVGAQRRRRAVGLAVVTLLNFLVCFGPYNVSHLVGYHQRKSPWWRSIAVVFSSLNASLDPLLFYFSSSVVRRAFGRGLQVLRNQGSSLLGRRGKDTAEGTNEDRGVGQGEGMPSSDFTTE

For the next series, the target named is FFA1 (Homo sapiens, UniProt O14842). Conditions: footnote b: insulin secretion/DMR assay.
Chain of FFA1 (O14842 whole entry): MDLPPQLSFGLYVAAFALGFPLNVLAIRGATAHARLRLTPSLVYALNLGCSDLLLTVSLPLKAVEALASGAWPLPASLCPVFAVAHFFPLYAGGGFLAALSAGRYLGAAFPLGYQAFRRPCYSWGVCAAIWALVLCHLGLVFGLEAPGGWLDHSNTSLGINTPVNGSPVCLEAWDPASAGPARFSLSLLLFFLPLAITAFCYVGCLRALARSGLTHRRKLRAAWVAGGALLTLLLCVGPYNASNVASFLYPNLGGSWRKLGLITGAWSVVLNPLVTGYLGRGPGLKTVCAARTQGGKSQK

Chain of GPR40 (O14842 whole entry): as above

`CC(C)=CCC/C(C)=C/CC/C(C)=C/Cc1c(O)cc(C)c(C(=O)O)c1O` [Grifolic acid]: on GPR40, the GPR40 activity result was “without GPR40 activity”. In addition, at GPR120, the GPR120 agonism result is “Weak GPR120 partial agonist”.

Turning to `Cc1ccccc1C#Cc1ccc(CCC(=O)O)cc1` [TUG424], the “activity at FFA3” value on FFA3 was “No activity at FFA2 and FFA3 reported (TUG424)”. Also, at FFA2, the “activity at FFA2” value is “No activity at FFA2 and FFA3 reported (TUG424)”. For the same molecule, on FFA1, the “FFA1 pEC50” value is listed as 7.5^b.
